This assay addresses T1, human calcitonin receptor (hCTR2) (Homo sapiens, UniProt P30988).
T1 construct: expressed in transfected cells
T1 sequence (P30988 25-474): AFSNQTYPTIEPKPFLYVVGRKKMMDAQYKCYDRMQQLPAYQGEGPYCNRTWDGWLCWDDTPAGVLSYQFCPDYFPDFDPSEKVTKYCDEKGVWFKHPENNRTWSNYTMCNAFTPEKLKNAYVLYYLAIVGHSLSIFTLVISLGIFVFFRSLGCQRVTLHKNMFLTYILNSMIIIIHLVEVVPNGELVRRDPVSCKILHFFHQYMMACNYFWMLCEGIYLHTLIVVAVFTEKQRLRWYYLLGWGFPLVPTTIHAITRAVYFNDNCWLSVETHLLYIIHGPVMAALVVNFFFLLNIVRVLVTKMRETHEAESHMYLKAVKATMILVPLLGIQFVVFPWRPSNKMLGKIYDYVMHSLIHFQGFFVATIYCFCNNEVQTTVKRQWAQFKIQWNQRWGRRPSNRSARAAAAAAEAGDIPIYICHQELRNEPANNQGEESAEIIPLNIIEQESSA
Nature of the assay: hCTR2 assay: induction of cAMP (AlphaScreen cAMP Assay kit) in COS7 cells expressing hCTR2. The format is cell-based. The source says: The cell line COS7, originating from African Green Monkey kidney fibroblast cells, was used for establishment of the stable cell lines described below. The COS7 cellular background was used due to it being RAMP naive, and as such it provides the best available system for testing of the monomeric hCTR and different heterodimeric amylin receptor subtypes functionally generated by introduction of the individual RAMPs.
A cell line expressing the human calcitonin receptor (hCTR2) was generated in the COS7 cellular background as stable clones. In brief, hCTR2 (GI: 4502547) was amplified by PCR using primers encoding terminal restriction sites for subcloning. The 5'-end primers additionally encoded a near Kozak consensus sequence to ensure efficient translation. The fidelity of the DNA encoding the receptor was confirmed by DNA sequencing. The PCR products encoding the receptor were subcloned into a mammalian expression vector containing a neomycin (G418) resistance marker. The mammalian expression vector encoding the receptor was transfected into COS7 cells by a standard liposome transfection method. 48 hours post-transfection, cells were seeded for limited dilution cloning and selected with 1 mg/ml G418 in the culture medium. After 3 weeks, surviving colonies of hCTR2-expressing cells were picked, propagated and tested in the amylin efficacy assay as described in Example 3 below. One hCTR2-expressing clone was chosen for compound profiling.
In vitro activity of test peptides at the hCTR2 and hAMYR3 receptors was assessed by measuring the induction of cAMP following stimulation of the receptor by pramlintide or peptides of the invention using the AlphaScreen® cAMP Assay kit from Perkin-Elmer.
Briefly, COS7 cells expressing hCTR2 (see Example 2, above) were seeded at 30-40,000 cells per well in 96-well microtiter plates coated with 0.01 % poly-L-lysine, and grown for 1 day in culture in 100 µl growth medium [DMEM, 10% FCS, Penicillin (100 IU/ml), Streptomycin (100 µg/ml)]. On the day of analysis, growth medium was removed and the cells were washed once with 200 µl Tyrode buffer [Tyrode's Salts (9.6 g/l), 10 mM HEPES, pH 7.4]. Cells were incubated in 100 µl Tyrode buffer containing increasing concentrations of test peptides, 100 µM IBMX and 0.1% casein for 15 min at 37° C. The reaction was stopped by carefully decanting off the compound/buffer medium and replacing it with lysis/detection buffer (80 µl 0.1 % w/v BSA, 5 mM HEPES, 0.3 % v/v Tween-20 in deionized water). After incubation at room temperature for 10 min., the cAMP content of the resulting cell lysate was estimated according to the AlphaScreen® cAMP Assay manufacturer's instructions. EC50 values and relative efficacy values (in %) compared to reference peptide (Pramlintide) were estimated by computer-aided curve fitting using the 4-parameter logistic (4PL) non-linear model.
The in vitro activity results (expressed as EC50 values) for peptides of the invention and for Pramlintide (reference peptide) are summarized in Table 2, below.

[1] abbreviates: cAMP induction in COS7 cells expressing hCTR2, average of a minimum of 3 determinations, read-out: hCTR2 EC50.

Read-outs that look alike come from different tables or passages of the source. Numbered stars: 1 amine (or outer) side, 2 acyl side, 3 side chain; on linkers, the order of the positions; unused ones are H or OH. Bridge positions count the residues as written; N and C are the ends. Square brackets hold non-standard residues; d marks the D form. Peptide text beside a SMILES is read from it. * marks the point of attachment. C20 diacid = O=C(O)CCCCCCCCCCCCCCCCCCC(=O)*; γGlu = O=C(O)[C@H](CCC(=O)[*:2])N[*:1]; NMeI = CC[C@H](C)[C@H](NC)C(=O)O; Sar = CNCC(=O)O

In general, EC50 refers to the concentration giving half of the maximal effect. Consider `CC[C@H](C)[C@@H](C(=O)N[C@@H](CC(C)C)C(=O)N[C@@H](CO)C(=O)N[C@@H](CO)C(=O)N[C@H](C(=O)N[C@@H](CC(N)=O)C(=O)N[C@H](C(=O)NCC(=O)N[C@@H](CO)C(=O)N[C@@H](CC(N)=O)C(=O)N[C@H](C(=O)N1CCC[C@H]1C(N)=O)[C@@H](C)O)C(C)C)[C@@H](C)O)N(C)C(=O)[C@H](C)NC(=O)CN(C)C(=O)[C@@H](Cc1ccccc1)NC(=O)[C@H](CC(N)=O)NC(=O)[C@H](CC(N)=O)NC(=O)[C@H](CO)NC(=O)[C@H](CO)NC(=O)[C@H](Cc1c[nH]cn1)NC(=O)[C@H](Cc1c[nH]cn1)NC(=O)[C@H](CC(C)C)NC(=O)[C@H](Cc1ccccc1)NC(=O)[C@H](CCC(=O)O)NC(=O)[C@H](C)NC(=O)[C@H](CC(C)C)NC(=O)[C@H](CCCNC(=N)N)NC(=O)[C@H](CCC(N)=O)NC(=O)[C@@H](NC(=O)[C@H](C)NC(=O)[C@@H]1CSSC[C@H](NC(=O)[C@H](CCCNC(=N)N)NC(=O)CC[C@H](NC(=O)CCCCCCCCCCCCCCCCCCC(=O)O)C(=O)O)C(=O)N[C@@H](CC(N)=O)C(=O)N[C@@H]([C@@H](C)O)C(=O)N[C@@H](C)C(=O)N[C@@H]([C@@H](C)O)C(=O)N1)[C@@H](C)O` [Compound 13, [19CD]-isoGlu-RC()NTATC()ATQRLAEFLHHSSNN-DPhe-Gly(Me)-A-Ile(Me)-LSSTNVGSNTP-NH2] ({C20 diacid-γGlu}-RCNTATCATQRLAEFLHHSSNN[dF][Sar]A[NMeI]LSSTNVGSNTP-NH2; disulfide 2-7), for which the EC50 is 0.067 nM.

Take `CC[C@H](C)[C@@H](C(=O)N[C@@H](CC(C)C)C(=O)N[C@@H](CO)C(=O)N[C@@H](CO)C(=O)N[C@H](C(=O)N[C@@H](CC(N)=O)C(=O)N[C@H](C(=O)NCC(=O)N[C@@H](CO)C(=O)N[C@@H](CC(N)=O)C(=O)N[C@H](C(=O)N1CCC[C@H]1C(N)=O)[C@@H](C)O)C(C)C)[C@@H](C)O)N(C)C(=O)[C@@H](C)NC(=O)CN(C)C(=O)[C@H](Cc1ccccc1)NC(=O)[C@H](CC(N)=O)NC(=O)[C@H](CC(N)=O)NC(=O)[C@H](CO)NC(=O)[C@H](CO)NC(=O)[C@H](Cc1c[nH]cn1)NC(=O)[C@H](Cc1c[nH]cn1)NC(=O)[C@H](CC(C)C)NC(=O)[C@H](Cc1ccccc1)NC(=O)[C@H](CCC(=O)O)NC(=O)[C@H](C)NC(=O)[C@H](CC(C)C)NC(=O)[C@H](CCCNC(=N)N)NC(=O)[C@H](CCC(N)=O)NC(=O)[C@@H](NC(=O)[C@H](C)NC(=O)[C@@H]1CSSC[C@H](NC(=O)[C@H](CCCNC(=N)N)NC(=O)CC[C@H](NC(=O)CCCCCCCCCCCCCCCCCCC(=O)O)C(=O)O)C(=O)N[C@@H](CC(N)=O)C(=O)N[C@@H]([C@@H](C)O)C(=O)N[C@@H](C)C(=O)N[C@@H]([C@@H](C)O)C(=O)N1)[C@@H](C)O` [Compound 14, [19CD]-isoGlu-RC()NTATC()ATQRLAEFLHHSSNNF-Gly(Me)-DAla-Ile(Me)-LSSTNVGSNTP-NH2] ({C20 diacid-γGlu}-RCNTATCATQRLAEFLHHSSNNF[Sar][dA][NMeI]LSSTNVGSNTP-NH2; disulfide 2-7): the EC50 is 0.21 nM.

As to `CC[C@H](C)[C@@H](C(=O)N[C@H](CC(C)C)C(=O)N[C@@H](CO)C(=O)N[C@@H](CO)C(=O)N[C@H](C(=O)N[C@@H](CC(N)=O)C(=O)N[C@H](C(=O)NCC(=O)N[C@@H](CO)C(=O)N[C@@H](CC(N)=O)C(=O)N[C@H](C(=O)N1CCC[C@H]1C(N)=O)[C@@H](C)O)C(C)C)[C@@H](C)O)N(C)C(=O)[C@H](C)NC(=O)CN(C)C(=O)[C@H](Cc1ccccc1)NC(=O)[C@H](CC(N)=O)NC(=O)[C@H](CC(N)=O)NC(=O)[C@H](CO)NC(=O)[C@H](CO)NC(=O)[C@H](Cc1c[nH]cn1)NC(=O)[C@H](Cc1c[nH]cn1)NC(=O)[C@H](CC(C)C)NC(=O)[C@H](Cc1ccccc1)NC(=O)[C@H](CCC(=O)O)NC(=O)[C@H](C)NC(=O)[C@H](CC(C)C)NC(=O)[C@H](CCCNC(=N)N)NC(=O)[C@H](CCC(N)=O)NC(=O)[C@@H](NC(=O)[C@H](C)NC(=O)[C@@H]1CSSC[C@H](NC(=O)[C@H](CCCNC(=N)N)NC(=O)CC[C@H](NC(=O)CCCCCCCCCCCCCCCCCCC(=O)O)C(=O)O)C(=O)N[C@@H](CC(N)=O)C(=O)N[C@@H]([C@@H](C)O)C(=O)N[C@@H](C)C(=O)N[C@@H]([C@@H](C)O)C(=O)N1)[C@@H](C)O` [Compound 15, [19CD]-isoGlu-RC()NTA TC()ATQRLAEFLHHSSNNF-Gly(Me)-A-Ile(Me)-DLeu-SSTNVGSNTP-NH2] ({C20 diacid-γGlu}-RCNTATCATQRLAEFLHHSSNNF[Sar]A[NMeI][dL]SSTNVGSNTP-NH2; disulfide 2-7), the EC50 was 0.16 nM.

On to `CC[C@H](C)[C@@H](C(=O)N[C@@H](CC(C)C)C(=O)N[C@@H](CO)C(=O)N[C@@H](CO)C(=O)N[C@H](C(=O)N[C@@H](CC(N)=O)C(=O)N[C@H](C(=O)NCC(=O)N[C@@H](CO)C(=O)N[C@@H](CC(N)=O)C(=O)N[C@H](C(=O)N1CCC[C@H]1C(N)=O)[C@@H](C)O)C(C)C)[C@@H](C)O)N(C)C(=O)[C@H](C)NC(=O)[C@H](C)NC(=O)[C@H](Cc1ccccc1)NC(=O)[C@H](CC(N)=O)NC(=O)[C@H](CC(N)=O)NC(=O)[C@H](CO)NC(=O)[C@H](CO)NC(=O)[C@H](Cc1c[nH]cn1)NC(=O)[C@H](Cc1c[nH]cn1)NC(=O)[C@H](CC(C)C)NC(=O)[C@H](Cc1ccccc1)NC(=O)[C@H](CCC(=O)O)NC(=O)[C@H](C)NC(=O)[C@H](CC(C)C)NC(=O)[C@H](CCCNC(=N)N)NC(=O)[C@H](CCC(N)=O)NC(=O)[C@@H](NC(=O)[C@H](C)NC(=O)[C@@H]1CSSC[C@H](NC(=O)[C@H](CCCNC(=N)N)NC(=O)CC[C@H](NC(=O)CCCCCCCCCCCCCCCCCCC(=O)O)C(=O)O)C(=O)N[C@@H](CC(N)=O)C(=O)N[C@@H]([C@@H](C)O)C(=O)N[C@@H](C)C(=O)N[C@@H]([C@@H](C)O)C(=O)N1)[C@@H](C)O` [Compound 16, [19CD]-isoGlu-RC()NTATC()ATQRLAEFLHHSSNNFAA-Ile(Me)-LSSTNVGSNTP-NH2] ({C20 diacid-γGlu}-RCNTATCATQRLAEFLHHSSNNFAA[NMeI]LSSTNVGSNTP-NH2; disulfide 2-7), for which the EC50 under setting [1] was determined as 0.076 nM.

Turning to `CC[C@H](C)[C@@H](C(=O)N[C@@H](CC(C)C)C(=O)N[C@@H](CO)C(=O)N[C@@H](CO)C(=O)N[C@H](C(=O)N[C@@H](CC(N)=O)C(=O)N[C@H](C(=O)NCC(=O)N[C@@H](CO)C(=O)N[C@@H](CC(N)=O)C(=O)N[C@H](C(=O)N1CCC[C@H]1C(N)=O)[C@@H](C)O)C(C)C)[C@@H](C)O)N(C)C(=O)[C@H](C)NC(=O)[C@@H](C)NC(=O)[C@H](Cc1ccccc1)NC(=O)[C@H](CC(N)=O)NC(=O)[C@H](CC(N)=O)NC(=O)[C@H](CO)NC(=O)[C@H](CO)NC(=O)[C@H](Cc1c[nH]cn1)NC(=O)[C@H](Cc1c[nH]cn1)NC(=O)[C@H](CC(C)C)NC(=O)[C@H](Cc1ccccc1)NC(=O)[C@H](CCC(=O)O)NC(=O)[C@H](C)NC(=O)[C@H](CC(C)C)NC(=O)[C@H](CCCNC(=N)N)NC(=O)[C@H](CCC(N)=O)NC(=O)[C@@H](NC(=O)[C@H](C)NC(=O)[C@@H]1CSSC[C@H](NC(=O)[C@H](CCCNC(=N)N)NC(=O)CC[C@H](NC(=O)CCCCCCCCCCCCCCCCCCC(=O)O)C(=O)O)C(=O)N[C@@H](CC(N)=O)C(=O)N[C@@H]([C@@H](C)O)C(=O)N[C@@H](C)C(=O)N[C@@H]([C@@H](C)O)C(=O)N1)[C@@H](C)O` [Compound 17, [19CD]-isoGlu-RC()NTATC()ATQRLAEFLHHSSNNF-DAla-A-Ile(Me)-LSSTNVGSNTP-NH2] ({C20 diacid-γGlu}-RCNTATCATQRLAEFLHHSSNNF[dA]A[NMeI]LSSTNVGSNTP-NH2; disulfide 2-7), the EC50 under setting [1] worked out at 0.093 nM.

The record behind these values is EP3046573B1, “AMYLIN ANALOGUES” (Zealand Pharma A/S, priority 2013, dated 2015).
